Assay results from patent US9416181B2, “Compositions for cell culture and methods of using the same” (AbbVie Inc., priority 2013, dated 2016).
Entries after “also recorded” stand apart in the source; their conditions may differ.

What was measured:
Format in all cases: cell-based, Chinese Hamster
[1] = system: Cell Line 1 (CHO) expressing Antibody 1; assay: Cell culture performance (cell growth, viability, titer), Cell Line 1 shake flask fed-batch culture
Experimental: (§1) A recombinant Chinese Hamster Ovary (CHO) cell line (Cell Line 1) expressing a humanized monoclonal antibody (Antibody 1) was evaluated in 2 different cultures vessels (shaker flasks and 3 L laboratory-scale bioreactors). The cell line was of CHO DUX-B11 origin based on a DHFR (dihydrofolate reductase) expression system and cultured in a chemically defined basal media, and fed periodically with a chemically-defined feed media (CDFM). The media utilized throughout all of the experiments were chemically-defined, and both animal-component free, and protein-free. Each of the respective media were supplemented as needed with selected bioflavonoids to evaluate for their potential impact on the resulting acidic species profile. In preparation of the cultures, the cell lines were serially expanded through separate seed train inoculums to generate enough cells for inoculation. Process conditions utilized during the cultures were slightly different depending on the culture scale, but similar within each scale to the respective non-bioflavonoid supplemented control conditions. All bioflavonoids utilized were purchased from Sigma-Aldrich (St. Louis, Mo.).
Viable cell density (VCD) and cell viability values were measured through trypan blue exclusion via Cedex automated cell counters (Roche Applied Science, Indianapolis, Ind.), glucose and lactate values were measured with a ABL-805 (Radiometer Medical, Denmark) blood gas analyzer. Offline pH, dissolved oxygen (DO), and pCO2 measurements were performed as needed with an ABL-805 (Radiometer Medical, Denmark) blood gas analyzer. Osmolality was measured as needed on a Multi-Osmette 2430 osmometer (Precision Systems, Natick, Mass.).
Antibody titers were measured from crude cell culture harvests on a Poros A™ (Life Technologies, Carlsbad, Calif.) affinity column using an HPLC system operating with a low pH, step elution gradient with detection at 280 nm. Absolute concentrations were assigned with respect to reference standard calibration curves.
(§2) In this Example, EGCG was added into the feed (cell culture medium) at the concentration range of 5 mg/L (low), 20 mg/L (mid) and 50 mg/L (high) in a shaker experiment to determine the impact of EGCG on product quality of a humanized monoclonal antibody (Antibody 1). Detailed cell culture conditions are as described in Table 1.
(§3) However, it was not clear whether or not additional bioflavonoids would also have the same effects. To evaluate the impact of alternative bioflavonoids, fed-batch shake flask cultures were initiated with CDFM supplemented with 3 different concentrations of genistein, rutin, and naringin, in addition to EGCG. Cell growth, viability, as well as titers and acidic species variants were measured.
(§4) To evaluate the impact of other bioflavonoids, fed-batch shake flask cultures were initiated with CDFM supplemented with multiple concentrations of rutin. Cell growth, viability, as well as titers and acidic species variants were measured and shown in FIGS. 14 and 15, respectively.

[2] = system: Cell Line 1 (CHO) expressing Antibody 1; assay: Intracellular ROS by flow cytometry (H2-DCF), Cell Line 1 3 L bioreactor culture; details: bioreactor cultures; Days 6, 8, 12, 15; vs unsupplemented control
Experimental: At least 10×10^6 cells were harvested from 3 L bioreactor cultures on Days 6, 8, 12, and 15 after inoculation. Immediately after sampling, the samples were centrifuged and the cell pellet was washed with 1×PBS, and re-suspended in 1 mL of pre-warmed 1×PBS. 2 μL of 2 mM H2-DCF (Life Technologies, Grand Island, N.Y.) in DMSO (Sigma-Aldrich, St. Louis, Mo.) was then added and incubated at 37° C. for 30 minutes and covered from light. The cell suspension was then centrifuged and resuspended in 1×PBS twice to wash the cells and remove residual fluorophore. The cells were then loaded onto a FACSCalibur (Becton Dickinson, Franklin Lakes, N.J.) flow cytometer for the measurement of intracellular ROS at 492-495 nm/517-527 nm excitation/emission.

[3] = system: Cell Line 1 (CHO) expressing Antibody 1; assay: Acidic species variants (WCX-10) of Antibody 1, Cell Line 1 shake flask fed-batch culture; details: shaker; for reduction of total acidic species content, absolute value: vs unsupplemented control
Experimental: as §1
Samples were analyzed using an HPLC system equipped with a ProPac WCX-10 analytical column (Thermo Scientific, Sunnyvale, Calif.). Approximately 100 μg of sample was loaded in 6% Buffer B (10 mM sodium phosphate, 500 mM NaCl, pH 5.5) and 94% Buffer A (10 mM sodium phosphate, pH 7.5). The column was run at a flow rate of 1.0 mL/min. The protein was eluted from the column by increasing the buffer B composition from 6% to 16% over 20 minutes. The protein peaks were measured using UV absorbance at 280 nm as the peaks eluted from the column. The column was regenerated using 100% buffer B followed be a re-equilibration period using initial condition before the injection of the next sample. Peaks eluting before the main peak were termed “acidic peaks” and peaks eluting after the main peak were called “basic peaks” (FIG. 2).
as §2, §3
Charge Heterogeneity via Weak Cation Exchange Chromatography-Samples were analyzed using an HPLC system equipped with a ProPac WCX-10 analytical column (Thermo Scientific, Sunnyvale, Calif.). Approximately 100 μg of sample was loaded in 6% Buffer B (10 mM sodium phosphate, 500 mM NaCl, pH 5.5) and 94% Buffer A (10 mM sodium phosphate, pH 7.5). The column was run at a flow rate of 1.0 mL/min. The protein was eluted from the column by increasing the buffer B composition from 6% to 16% over 20 minutes. The protein peaks were measured using UV absorbance at 280 nm as the peaks eluted from the column. The column was regenerated using 100% buffer B followed be a re-equilibration period using initial condition before the injection of the next sample. Peaks eluting before the main peak were termed ‘acidic peaks’ and peaks eluting after the main peak were called ‘basic peaks’ (FIG. 2).
as §4

[4] = system: Cell Line 1 (CHO) expressing Antibody 1; assay: Aggregate content (SEC) of Antibody 1, Cell Line 1 shake flask fed-batch culture; details: shaker
Experimental: as §1
Protein A purified antibody samples from Cell Line 1 were diluted when necessary to 0.5-5 mg/mL in 1×PBS, and measured on a TSKgel G3000SWXL column (Tosoh Bioscience, South San Francisco, Calif.) using an isocratic gradient on an HPLC system with detection at 280 nm. High molecular weight (HMW), monomer, and low molecular weight (LMW) species were assigned and subsequently quantitated based on the chromatographic profile.
as §2

[5] = concentrations above 0.1 g/L in CDFM, shake flask

## O=C(O[C@@H]1Cc2c(O)cc(O)cc2O[C@@H]1c1cc(O)c(O)c(O)c1)c1cc(O)c(O)c(O)c1 [EGCG, epigallocatechin gallate]
[1]; 0.1 g/L in CDFM, shake flask
  cell growth vs control: significantly lower than that of the control culture
[1]; 0.1 g/L in CDFM, shake flask, cultures proceeded until Day 12
  cell viability vs control: comparable to the control
[1]; 5, 20 and 50 mg/L in feed, shaker
  impact on cell culture performance (cell growth, viability, titer): no impact on cell culture performance
[1]; [5]
  cell growth: adversely impacted
  culture duration reached before viability became too low: 8 days
[1]; higher levels of supplement, shake flask, Day 12 harvest
  harvest titer: decreased titer
[2]
  intracellular ROS level: marked reduction of overall ROS level; also recorded: reduced the intracellular ROS level in a dose-dependent fashion
[3]; 5 mg/L in feed
  reduction of total acidic species content, relative value: 5%
  reduction of total acidic species content, absolute value: 1%
[3]; 20 mg/L in feed
  reduction of total acidic species content, relative value: 10%
  reduction of total acidic species content, absolute value: 2%
[3]; 50 mg/L in feed
  reduction of total acidic species content, relative value: 35%
  reduction of total acidic species content, absolute value: 7%
[4]; 5 mg/L in feed
  reduction of aggregation content, relative value: 9%
[4]; 20 mg/L in feed
  reduction of aggregation content, relative value: 23%
[4]; 50 mg/L in feed
  reduction of aggregation content, relative value: 44%
